In PMC11251166 (Nature Communications, 2024):

Tests used:
[1] = target: T1, MavL40-404 (Legionella pneumophila, UniProt Q5ZSJ1)
T1 construct: gene lpg2526

[2] = target: T2, LnaB (Legionella pneumophila, UniProt Q5ZSJ0); assay: biochemical
T2 construct: gene lpg2527
T2 sequence (Q5ZSJ0 1-558 limits assumed): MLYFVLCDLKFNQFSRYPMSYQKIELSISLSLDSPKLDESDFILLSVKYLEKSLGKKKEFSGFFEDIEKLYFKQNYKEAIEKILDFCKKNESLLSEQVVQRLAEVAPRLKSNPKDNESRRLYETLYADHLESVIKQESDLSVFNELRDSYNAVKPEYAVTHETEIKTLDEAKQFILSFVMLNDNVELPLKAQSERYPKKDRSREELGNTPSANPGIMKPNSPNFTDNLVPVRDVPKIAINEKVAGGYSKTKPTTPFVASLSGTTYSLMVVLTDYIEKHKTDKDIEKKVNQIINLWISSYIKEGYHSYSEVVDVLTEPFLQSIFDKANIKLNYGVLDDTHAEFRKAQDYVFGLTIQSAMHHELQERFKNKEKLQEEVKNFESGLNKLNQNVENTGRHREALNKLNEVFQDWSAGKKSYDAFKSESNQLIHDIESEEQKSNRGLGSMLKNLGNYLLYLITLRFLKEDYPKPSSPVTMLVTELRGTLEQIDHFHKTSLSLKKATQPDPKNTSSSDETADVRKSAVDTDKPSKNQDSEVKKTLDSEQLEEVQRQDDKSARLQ

T1 sequence (Q5ZSJ1 40-404 limits assumed): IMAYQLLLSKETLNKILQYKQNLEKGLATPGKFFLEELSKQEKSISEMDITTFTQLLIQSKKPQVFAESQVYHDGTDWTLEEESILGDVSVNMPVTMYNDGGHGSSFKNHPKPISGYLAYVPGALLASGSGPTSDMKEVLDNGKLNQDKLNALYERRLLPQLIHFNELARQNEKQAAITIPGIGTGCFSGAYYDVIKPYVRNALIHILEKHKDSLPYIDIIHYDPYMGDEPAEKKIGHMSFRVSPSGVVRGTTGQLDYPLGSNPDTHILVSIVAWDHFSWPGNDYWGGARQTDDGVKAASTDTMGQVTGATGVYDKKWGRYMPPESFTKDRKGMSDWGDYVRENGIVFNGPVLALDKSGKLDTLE

Structure (SMILES) | Kd [1] | Kd [2]
Nc1ncnc2c1ncn2[C@@H]1O[C@H](COP(=O)(O)OP(=O)(O)OC[C@H]2OC(O)[C@H](O)[C@@H]2O)[C@@H](O)[C@H]1O (some centres unmarked) [ADPR] | 25 ± 3.24 µM | 
Nc1ncnc2c1ncn2[C@@H]1O[C@H](COP(=O)(O)OP(=O)(O)OP(=O)(O)O)[C@@H](O)[C@H]1O [ATP] |  | 15.4 ± 4.85 µM
